# Results: patent US8431113B2, “Polymer conjugates” (Biocompatibles UK Limited, priority 2002, dated 2013)
# Assay: Effect of polymer modification on drug solubility: maximum solubility in water at room temperature, compound added step-wise
# Format: physicochemical
# Conditions: unmodified base drug
# Procedure: The polymer-modified compound was added step-wise to water to determine the maximum solubility at room temperature.
smiles,measurement,setting,value
"O=C(O)c1ccccc1O [Salicylic Acid, salicylic acid]",Solubility of Drug,,16 mM
same,solubility,water,2200 µg/mL
